Measured values from ChEMBL document CHEMBL3763049, “Discovery of aminoquinazoline derivatives as human A(2A) adenosine receptor antagonists” (Bioorg Med Chem Lett, 2016).
Converted amounts (≈) assume the structure as drawn.

Experiments:
[1] = molecular target: T1, Adenosine receptor A1 (Homo sapiens, UniProt P30542); assay: Displacement of [3H]DPCPX from human adenosine A1 receptor expressed in CHO cell membranes after 60 mins by microplate scintillation counting analysis
T1 sequence (P30542 whole entry): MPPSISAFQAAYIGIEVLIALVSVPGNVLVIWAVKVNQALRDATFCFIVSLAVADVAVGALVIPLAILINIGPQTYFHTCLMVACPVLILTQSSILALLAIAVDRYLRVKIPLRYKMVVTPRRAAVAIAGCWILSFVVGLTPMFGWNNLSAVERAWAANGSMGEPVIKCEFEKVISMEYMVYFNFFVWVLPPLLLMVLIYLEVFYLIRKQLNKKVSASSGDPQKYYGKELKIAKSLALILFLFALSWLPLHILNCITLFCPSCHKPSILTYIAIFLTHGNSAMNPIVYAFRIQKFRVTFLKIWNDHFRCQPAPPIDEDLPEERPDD

[2] = molecular target: Adenosine receptor A2a (Homo sapiens, UniProt P29274); assay: Displacement of [3H]SCH-58261 from human adenosine A2A receptor expressed in HEK cell membranes after 60 mins by microplate scintillation counting analysis; design: species or system HEK293
Sequence of Adenosine receptor A2a (Homo sapiens, UniProt P29274) (P29274 whole entry): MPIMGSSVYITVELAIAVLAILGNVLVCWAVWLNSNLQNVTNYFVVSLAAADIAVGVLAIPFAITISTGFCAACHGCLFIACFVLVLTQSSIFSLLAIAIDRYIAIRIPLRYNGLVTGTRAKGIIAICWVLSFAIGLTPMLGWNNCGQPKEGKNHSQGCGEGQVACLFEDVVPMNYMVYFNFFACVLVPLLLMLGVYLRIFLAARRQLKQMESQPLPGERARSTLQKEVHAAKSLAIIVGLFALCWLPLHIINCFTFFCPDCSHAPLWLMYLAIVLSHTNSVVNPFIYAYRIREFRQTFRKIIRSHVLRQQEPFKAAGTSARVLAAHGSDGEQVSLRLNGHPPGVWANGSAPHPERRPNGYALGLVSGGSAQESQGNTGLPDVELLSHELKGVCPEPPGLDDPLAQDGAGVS

[3] = molecular target: Adenosine receptor A2a (Rattus norvegicus, UniProt P30543); assay: Binding affinity to rat A2A adenosine receptor
Sequence of Adenosine receptor A2a (Rattus norvegicus, UniProt P30543) (P30543 whole entry): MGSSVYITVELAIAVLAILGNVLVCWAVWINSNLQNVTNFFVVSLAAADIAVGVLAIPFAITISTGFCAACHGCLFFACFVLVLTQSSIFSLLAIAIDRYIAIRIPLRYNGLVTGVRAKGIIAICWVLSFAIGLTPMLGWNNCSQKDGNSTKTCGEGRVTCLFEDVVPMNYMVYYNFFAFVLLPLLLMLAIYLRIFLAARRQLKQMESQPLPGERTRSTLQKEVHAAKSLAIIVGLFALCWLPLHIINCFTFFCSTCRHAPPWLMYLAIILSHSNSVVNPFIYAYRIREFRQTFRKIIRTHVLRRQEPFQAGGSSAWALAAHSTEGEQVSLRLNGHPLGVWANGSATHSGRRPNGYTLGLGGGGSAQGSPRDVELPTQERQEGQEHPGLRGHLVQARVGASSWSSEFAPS

[4] = AUC in haloperidol-induced Sprague-Dawley rat cataleptic model at 10 mg/kg, po administered for 1 hr; format: ADME, organism-based; settings: in vivo
[5] = molecular target: T2, Cytochrome P450 3A4 (Homo sapiens, UniProt P08684); assay: Time dependent inhibition of CYP3A4 (unknown origin); format: ADME
T2 sequence (P08684 whole entry): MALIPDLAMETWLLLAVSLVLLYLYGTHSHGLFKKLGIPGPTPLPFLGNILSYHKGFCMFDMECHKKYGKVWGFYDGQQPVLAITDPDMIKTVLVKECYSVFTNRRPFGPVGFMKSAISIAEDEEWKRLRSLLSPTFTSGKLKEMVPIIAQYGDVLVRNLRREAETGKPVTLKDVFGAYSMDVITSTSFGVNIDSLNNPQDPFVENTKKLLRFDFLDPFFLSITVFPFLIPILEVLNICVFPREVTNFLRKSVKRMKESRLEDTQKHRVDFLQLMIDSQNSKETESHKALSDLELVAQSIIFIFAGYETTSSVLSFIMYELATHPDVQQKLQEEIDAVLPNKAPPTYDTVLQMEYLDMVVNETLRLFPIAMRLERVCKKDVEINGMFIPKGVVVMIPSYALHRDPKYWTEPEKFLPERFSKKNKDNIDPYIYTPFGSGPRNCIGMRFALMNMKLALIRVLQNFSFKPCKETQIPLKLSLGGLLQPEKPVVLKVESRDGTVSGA

[6] = system: Rattus norvegicus; assay: Anti-cataleptic activity in Sprague-Dawley rat assessed as inhibition of haloperidol-induced catalepsy at 1 mg/kg, po administered for 1 hr; format: functional
[7] = system: Rattus norvegicus; assay: Anti-cataleptic activity in Sprague-Dawley rat assessed as inhibition of haloperidol-induced catalepsy at 10 mg/kg, po administered for 1 hr; format: functional
[8] = system: Rattus norvegicus; assay: Anti-cataleptic activity in Sprague-Dawley rat assessed as inhibition of haloperidol-induced catalepsy at 30 mg/kg, po administered for 1 hr; format: functional
[9] = AUC in haloperidol-induced Sprague-Dawley rat cataleptic model at 30 mg/kg, po administered for 1 hr; format: ADME, organism-based; settings: in vivo
[10] = Permeability of the compound; format: ADME; settings: not told; read-out: permeability
[11] = molecular target: T3, Adenosine receptor A3 (Homo sapiens, UniProt P0DMS8); assay: Binding affinity to human adenosine A3 receptor
T3 sequence (P0DMS8 whole entry): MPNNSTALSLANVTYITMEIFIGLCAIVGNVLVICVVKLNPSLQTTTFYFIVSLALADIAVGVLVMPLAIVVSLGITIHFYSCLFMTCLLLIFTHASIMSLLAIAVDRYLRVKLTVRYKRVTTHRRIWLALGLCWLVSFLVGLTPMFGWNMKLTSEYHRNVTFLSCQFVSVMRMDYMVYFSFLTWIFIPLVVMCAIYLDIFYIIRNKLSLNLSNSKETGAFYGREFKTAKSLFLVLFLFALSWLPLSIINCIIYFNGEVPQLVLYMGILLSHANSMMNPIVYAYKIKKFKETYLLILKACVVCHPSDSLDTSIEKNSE

[12] = Clearance in human hepatocytes assessed per million cells; format: ADME, cell-based, Hepatocyte; settings: read-out: CLH
[13] = molecular target: T2, Cytochrome P450 3A4; assay: Time dependent inhibition of CYP3A4 (unknown origin) at 30 uM relative to control; format: ADME
[14] = Drug uptake in brain of haloperidol-induced Sprague-Dawley rat cataleptic model after 1 hr; format: ADME, tissue-based; settings: read-out: Drug uptake
[15] = Plasma concentration in haloperidol-induced Sprague-Dawley rat cataleptic model after 1 hr; format: ADME
[16] = Plasma protein binding in rat; format: ADME, cell-free; settings: read-out: PPB (converted)
[17] = Clearance in rat hepatocytes assessed per million cells; format: ADME, cell-based, Hepatocyte; settings: read-out: CLH
[18] = molecular target: T4, Adenosine receptor A2b (Homo sapiens, UniProt P29275); assay: Binding affinity to human adenosine A2B receptor
T4 sequence (P29275 whole entry): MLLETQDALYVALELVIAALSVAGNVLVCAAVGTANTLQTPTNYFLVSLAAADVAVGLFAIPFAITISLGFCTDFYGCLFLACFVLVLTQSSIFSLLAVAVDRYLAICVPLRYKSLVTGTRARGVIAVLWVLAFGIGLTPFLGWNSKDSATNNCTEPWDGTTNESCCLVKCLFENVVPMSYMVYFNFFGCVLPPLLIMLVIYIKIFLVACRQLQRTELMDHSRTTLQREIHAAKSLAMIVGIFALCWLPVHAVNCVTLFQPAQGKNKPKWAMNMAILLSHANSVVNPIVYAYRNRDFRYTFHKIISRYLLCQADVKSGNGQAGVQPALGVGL

[19] = Plasma protein binding in human; format: ADME, cell-free; settings: read-out: PPB (converted)
[20] = Solubility of compound at pH 7; format: physicochemical; settings: buffer
[21] = Half life in haloperidol-induced Sprague-Dawley rat cataleptic model at 1 to 30 mg/kg, po administered for 1 to 4 hrs; format: ADME, organism-based; settings: in vivo

SMILES	Ki [1] [nM]	Ki [2] [nM]	further results
Nc1nc(C(=O)NCc2cccc3cc(C(=O)N4CCN(c5ccccn5)CC4)cnc23)c2cccc(F)c2n1	110	2.7	Ki ([3]; read-out: Ki): 12.5 nM
Nc1nc(C(=O)NCc2cccc3c2OCCN3)c2cccc(F)c2n1	135	21.5	
COCCOc1ccc(N2CCN(C(=O)c3cnc4c(CNC(=O)c5nc(N)nc6c(F)cccc56)cccc4c3)CC2)cc1	120	4.8	Ki ([3]; read-out: Ki): 11.4 nM
Nc1nc(C(=O)NCc2cccc3c(C(=O)N4CCN(c5ccccc5)CC4)ccnc23)c2cccc(F)c2n1	6000	1540	
Cn1nccc1-c1cccc2c(C(=O)NCc3cccc4cccnc34)nc(N)nc12	6040	1040	
Nc1nc(C(=O)NCCc2ccccc2)c2cccc(F)c2n1	559	160	
C[C@H](NC(=O)c1nc(N)nc2c(F)cccc12)c1cccc2cccnc12	524	126	
Nc1nc(C(=O)NCc2cccc3cccnc23)c2cccc(C(F)(F)F)c2n1	1300		Ki ([3]; read-out: Ki): 57 nM; inhibition in vivo at 30 mg/kg [8]: 0%
CN(CCCc1ccccn1)C(=O)c1cnc2c(CNC(=O)c3nc(N)nc4c(F)cccc34)cccc2c1	210	12	
Nc1nc(C(=O)NCc2cccc3cccnc23)c2cc(F)ccc2n1	346	4.4	AUC at 1 h [4]: 0.8 µM·h; Ki ([3]; read-out: Ki): 8.7 nM; inhibition in vivo at 10 mg/kg [7]: 55%
Nc1nc(C(=O)NCc2cccc3cc(C(=O)NCCCCCc4ccccc4)cnc23)c2cccc(F)c2n1	160	6.9	
Cc1cccc(CNC(=O)c2nc(N)nc3c(F)cccc23)c1	112	8.4	
Nc1nc(C(=O)NCc2cccc3[nH]cnc23)c2cccc(F)c2n1	281	25	
CCCCOc1ccnc2c(CNC(=O)c3nc(N)nc4c(F)cccc34)cccc12	748	245	Ki [3]: Not Active
Nc1nc(C(=O)NCc2ccnc3ccccc23)c2cccc(F)c2n1	10000	927	
Nc1nc(C(=O)NCc2cccc3cc(C(=O)N4CCCc5ccccc54)cnc23)c2cccc(F)c2n1	160	4.4	
Nc1nc(C(=O)NCC2CCCCC2)c2cccc(F)c2n1	170	45	
Nc1nc(C(=O)NCc2cccc3cccnc23)c2cccc(Cl)c2n1	213		Ki ([3]; read-out: Ki): 2.9 nM; inhibition in vivo at 30 mg/kg [8]: 35%
Cc1ccccc1CNC(=O)c1nc(N)nc2c(F)cccc12	116	13.6	
CS(=O)(=O)c1cccc2c(C(=O)NCc3cccc4cccnc34)nc(N)nc12	4740		Ki ([3]; read-out: Ki): 302 nM
Nc1cc(C(=O)NCc2cccc3cccnc23)c2ccccc2n1	17600	836	solubility [20]: 19 µM (≈ 6.24 µg/mL)
CSc1cccc2c(C(=O)NCc3cccc4cccnc34)nc(N)nc12	132		Ki ([3]; read-out: Ki): 12 nM; AUC at 1 h [9]: 8.9 µM·h; inhibition in vivo at 30 mg/kg [8]: 0%
Nc1nc(C(=O)NCc2cccc3c2NCCC3)c2cccc(F)c2n1	213	7.6	
Nc1nc(C(=O)NCc2cccc3cccnc23)c2cccc(-c3cncnc3)c2n1	6300	160	
Nc1nc(C(=O)NCCc2ccccn2)c2cccc(F)c2n1	600	14	
CCOc1ccnc2c(CNC(=O)c3nc(N)nc4c(F)cccc34)cccc12	252	73.2	
N#Cc1cccc2c(C(=O)NCc3cccc4cccnc34)nc(N)nc12	337	24	

Now those with a lower Ki [1], led by results:

Ki [1] [nM]	Ki [2] [nM]	SMILES	further results
57		C[C@@H](NC(=O)c1nc(N)nc2c(F)cccc12)c1cccc2cccnc12	
78	15	Nc1nc(C(=O)NCc2ccc3ccccc3n2)c2cccc(F)c2n1	
12	0.5	Nc1nc(C(=O)NCc2cccc3cccnc23)c2cccc(F)c2n1	AUC at 1 h [4]: 2.4 µM·h; TDI [5]: Not Active; Ki ([3]; read-out: Ki): 1.3 nM; inhibition in vivo at 1 mg/kg [6]: 30%; inhibition in vivo at 10 mg/kg [7]: 74%
54	8.2	Nc1nc(C(=O)NCc2cccc3cc[nH]c23)c2cccc(F)c2n1	
84	6.7	Nc1nc(C(=O)NCc2nccc3ccccc23)c2cccc(F)c2n1	
33	3.1	Nc1nc(C(=O)NCc2cccc3cccnc23)c2cccc(I)c2n1	AUC at 1 h [4]: 1.3 µM·h; inhibition in vivo at 10 mg/kg [7]: 23%
20		Nc1nc(C(=O)NCc2cccc3cccnc23)c2cccc(OC(F)(F)F)c2n1	Ki ([3]; read-out: Ki): 2.9 nM; inhibition in vivo at 30 mg/kg [8]: 0%
10		Nc1nc(C(=O)NCc2cccc3cccnc23)c2cccc(Br)c2n1	
69	15.2	COc1ccnc2c(CNC(=O)c3nc(N)nc4c(F)cccc34)cccc12	Ki ([3]; read-out: Ki): 1.3 nM
6		COc1cccc2c(C(=O)NCc3cccc4cccnc34)nc(N)nc12	Ki ([3]; read-out: Ki): 0.6 nM; AUC at 1 h [9]: 0.8 µM·h; inhibition in vivo at 30 mg/kg [8]: 31%
5.4	1.8	Nc1nc(C(=O)NCc2cccc3c2C(=O)NC3)c2cccc(F)c2n1	
31	0.3	Nc1nc(C(=O)NCc2cccc3cccnc23)c2ccc(F)cc2n1	AUC at 1 h [4]: 2.3 µM·h; Ki ([3]; read-out: Ki): 4.8 nM; inhibition in vivo at 10 mg/kg [7]: 39%
103	20	Nc1nc(C(=O)NCc2cccc3c2OCCO3)c2cccc(F)c2n1	
50	6.6	Nc1nc(C(=O)NCc2cccc3cccnc23)c2cc(Cl)cc(Cl)c2n1	
90	1.1	Nc1nc(C(=O)NCc2cccc3cccnc23)c2ccccc2n1	Papp [10]: 40 ×10⁻⁶ cm/s; Ki [11]: 985 nM; hepatocyte CLint [12]: 34.8 µL/min/1e6 cells; AUC at 1 h [4]: 1.6 µM·h; fold change (FC) [13]: 3; Ki ([3]; read-out: Ki): 11 nM; inhibition in vivo at 10 mg/kg [7]: 35%; concentration at 1 h [14]: 3.1 µM; inhibition in vivo at 30 mg/kg [8]: 61%; concentration at 1 h [15]: 4.2 µM; fraction unbound [16]: 0.045; hepatocyte CLint [17]: 12.8 µL/min/1e6 cells; Ki [18]: 1470 nM; fraction unbound [19]: 0.036; solubility [20]: 124 µM (≈ 40.8 µg/mL); half-life [21]: 30 min
90	10.1	Nc1nc(C(=O)NCc2cccc3ccccc23)c2cccc(F)c2n1	
24	3.1	CCn1cnc2c(CNC(=O)c3nc(N)nc4c(F)cccc34)cccc21	
40	3.6	Nc1nc(C(=O)NCc2cccc3cccnc23)c2cc(F)c(F)cc2n1	
78	26.7	Nc1nc(C(=O)NCc2cncc3ccccc23)c2cccc(F)c2n1	
83	5.4	Nc1nc(C(=O)NCc2ccccc2)c2cccc(F)c2n1	
